According to patent US12215354B2, “Differentiation of human embryonic stem cells into single hormonal insulin positive cells” (Janssen Biotech, Inc., priority 2011, dated 2025):

Test system: human embryonic stem cell line H1
Assay: Real-time PCR gene expression, timing of BMP inhibition at stage 3 (Example 3)
Assay type: cell-based
Method: Cells of the human embryonic stem cell line H1 at various passages (passage 40 to passage 52) were seeded as single cells at a density of 100,000 cells/cm^2 on MATRIGEL™ (1:30 dilution) coated dishes in mTesr™1 media supplemented with 10 μM of Y27632. Forty eight hours post seeding, cultures were differentiated into cells of the pancreatic endocrine lineage as follows: • a. Stage 1 (Definitive Endoderm (DE)−4 days): Prior to start of DE, the cells were washed and incubated with incomplete PBS (no Mg or Ca) for 30 seconds followed by incubation in S1 media. Human embryonic stem cells cultured as single cells on MATRIGEL™-coated dishes were treated for one day with MCDB-131 medium supplemented with 0.1% fatty acid-free BSA, 0.0012 g/ml sodium bicarbonate, 1× GLUTAMAX™, 2.5 mM D-Glucose, 100 ng/ml GDF8, 1.5 μM MCX compound (GSK3B inhibitor). Cells were then treated for […] (days 2-4) with MCDB-131 medium supplemented with 0.1% fatty acid-free BSA, 0.0012 g/ml sodium bicarbonate, 1× GLUTAMAX™, 2.5 mM glucose, and 100 ng/ml GDF8. • b. Stage 2 (Primitive gut tube−3 days): Stage 1 cells were treated for three days with MCDB-131 medium supplemented with 0.1% fatty acid-free BSA, 0.0012 g/ml sodium bicarbonate, 1× GLUTAMAX™, 2.5 mM D-Glucose, and 50 ng/ml FGF7. • c. Stage 3 (Foregut−3 days): Stage 2 cells were treated with MCDB-131 medium supplemented with a 1:200 dilution of ITS-X, 2.5 mM Glucose, 1× GLUTAMAX™, 0.0015 g/ml sodium bicarbonate, 2% fatty acid-free BSA, 0.25 μM SANT-1, 20 ng/ml of Activin-A, 2 μM RA, 50 ng/ml FGF7, 100 nM LDN-193189 (on day 1 only or for the duration of stage 3), and 200 nM TPB. In some cultures, LDN-193189 was removed from stage 3. • d. Stage 4 (Pancreatic foregut precursor-3 days): Stage 3 cells were treated with MCDB-131 medium supplemented with a 1:200 dilution of ITS-X, 2.5 mM Glucose, 1× GLUTAMAX™, 0.0015 g/ml sodium bicarbonate, 2% fatty acid-free BSA, 0.25 μM SANT-1, 100 nM TPB, 200 nM LDN-193189, 2 μM ALk5 inhibitor, and 100 nM CYP26A inhibitor for three days. • e. […]

[1] = at stage 4, 100 nM LDN-193189 on first day of stage 3, removed at days 2-3

In the case of `c1ccc2c(-c3cnn4cc(-c5ccc(N6CCNCC6)cc5)cnc34)ccnc2c1` [LDN-193189], the “expression of SOX2” value (at S3-S4, LDN-193189 retained for the duration of stage 3) is reported as “very high expression”, the “CDX2 and SOX2 expression” value [1] is reported as “decreasing” and the “expression of NGN3 and NeuroD” value [1] is reported as “significantly boosted”.
